Test results reported in US20150057154A1, “HERBICIDAL COMPOSITIONS COMPRISING SULFENTRAZONE plus PROPYZAMIDE AND SULFENTRAZONE PLUS PROPYZAMIDE PLUS ETHALFLURALIN” (Dow AgroSciences LLC, priority 2013, published 2015).

Columns and labels:
Type in all cases: in vivo
[1] = test system: Sinapis arvensis L. (wild mustard, SINAR); assay: Field trial, percent visual weed control of wild mustard
Method: (§1) These trials were conducted under field conditions in western Canada. The trials were designed as split-block, factorial designs with timing (spring vs. fall), Authority 480 (sulfentrazone) rate (0, 52 or 105 g ai/ha), Kerb™ SC (propyzamide) rate (0, 450 or 900 g ai/ha) as the main factors and Edge™ Granular (ethalfluralin) application (0 or 1100 g ai/ha) as the split-block factor. Edge™ was applied to test plots at a rate of 1100 g ai/ha using a granular applicator in the fall of 2011 (17 October to 9 November). Authority 480 and Kerb™ SC treatments were applied to test plots either in the fall prior to or after Edge™ application (17 October to 3 November), or in the spring of 2012 (24 April to 5 May). An untreated control was also included in each trial. Following herbicide treatment application in the spring of 2012, lentils were seeded or field peas were seeded into plots. Weed efficacy assessments were taken at 9-15 days after the spring application (DAA2) for an initial evaluation, 33 DAA2 for an early evaluation, 48-52 DAA2 for a mid evaluation, and 77-85 DAA2 for a late evaluation. The trial sites had naturally occurring populations of weeds. The weed spectrum included, but was not limited to, Avena fatua (wild oats, AVEFA), Hordeum jubatum (foxtail barley, HORJU), Kochia scoparia (kochia, KCHSC) and Sinapis arvensis L. (wild mustard, SINAR).
(§2) The treated plots and control plots were rated blind at various intervals after application. Ratings were based of Percent (%) Visual weed control, where 0 corresponds to no injury and 100 corresponds to complete kill.
(§3) Colby's equation was used to determine the herbicidal effects expected from the mixtures (Colby, S. R. Calculation of the synergistic and antagonistic response of herbicide combinations. Weeds 1967, 15, 20-22).
(§4) The following equation was used to calculate the expected activity of mixtures containing two active ingredients, A and B:
(§5) Expected=A+B−(A×B/100) • A=observed efficacy of active ingredient A at the same concentration as used in the mixture; • B=observed efficacy of active ingredient B at the same concentration as used in the mixture.
(§6) For mixtures containing three herbicidal active ingredients, the following equation can be used to calculate the expected activity:
(§7) [formula] • A=observed efficacy of a first active ingredient at the same concentration as used in the mixture; • B=observed efficacy of a second active ingredient B at the same concentration as used in the mixture; • C=observed efficacy of a third active ingredient C at the same concentration as used in the mixture.

[2] = test system: Avena fatua (wild oats, AVEFA); assay: Field trial, percent visual weed control of wild oats
Method: as §1, §2, §3, §4, §5, §6, §7

[3] = test system: Kochia scoparia (kochia, KCHSC); assay: Field trial, percent visual weed control of kochia
Method: as §1, §2, §3, §4, §5, §6, §7

[4] = test system: Hordeum jubatum (foxtail barley, HORJU); assay: Field trial, percent visual weed control of foxtail barley
Method: as §1, §2, §3, §4, §5, §6, §7

[5] = Table 3 (Spring applications), ethalfluralin 1100 g ai/ha (Edge Granular applied in the fall)
[6] = Table 4, Fall application, ethalfluralin 1100 g ai/ha
[7] = Table 1, Fall application, sulfentrazone 52 g ai/ha
[8] = Table 3, Spring application, sulfentrazone 52 g ai/ha
[9] = Table 4, Fall application, sulfentrazone 52 g ai/ha
[10] = Table 1, Fall application, sulfentrazone 105 g ai/ha
[11] = Table 2, Spring application, sulfentrazone 52 g ai/ha
[12] = Table 1, Fall application, propyzamide 900 g ai/ha
[13] = Table 1, Fall application, propyzamide 450 g ai/ha
[14] = Table 2, Spring application, propyzamide 450 g ai/ha
[15] = Table 2, Spring application, propyzamide 900 g ai/ha
[16] = Table 3, Spring application, propyzamide 450 g ai/ha

## C=C(C)CN(CC)c1c([N+](=O)[O-])cc(C(F)(F)F)cc1[N+](=O)[O-] [Ethalfluralin, N-ethyl-N-(2-methyl-2-propen-1-yl)-2,6-dinitro-4-(trifluoromethyl)benzenamine]
[1]; [5]
  SINAR Obs (Observed percent weed control): 0%
[1]; [6]
  SINAR Obs (Observed percent weed control): 0%
[2]; [5]
  AVEFA Obs (Observed percent weed control): 49%
[3]; [5]
  KCHSC Obs (Observed percent weed control): 55%
[3]; [6]
  KCHSC Obs (Observed percent weed control): 55%

## Cc1nn(-c2cc(NS(C)(=O)=O)c(Cl)cc2Cl)c(=O)n1C(F)F [Sulfentrazone, N-[2,4-dichloro-5-[4-(difluoromethyl)-4,5-dihydro-3-methyl-5-oxo-1H-1,2,4-triazol-1-yl]phenyl]methanesulfonamide]
[1]; [7]
  SINAR Obs (Observed percent weed control): 38%
[1]; [8]
  SINAR Obs (Observed percent weed control): 53%
[1]; [9]
  SINAR Obs (Observed percent weed control): 25%
[4]; [7]
  HORJU Obs (Observed percent weed control): 15%
[4]; [10]
  HORJU Obs (Observed percent weed control): 28%
[4]; [11]
  HORJU Obs (Observed percent weed control): 15%
[2]; [11]
  AVEFA Obs (Observed percent weed control): 0%
[2]; Table 2, Spring application, sulfentrazone 105 g ai/ha
  AVEFA Obs (Observed percent weed control): 15%
[2]; Table 3, Spring application, sulfentrazone 105 g ai/ha
  AVEFA Obs (Observed percent weed control): 0%
[3]; [7]
  KCHSC Obs (Observed percent weed control): 30%
[3]; [10]
  KCHSC Obs (Observed percent weed control): 40%
[3]; [11]
  KCHSC Obs (Observed percent weed control): 20%
[3]; [8]
  KCHSC Obs (Observed percent weed control): 20%
[3]; [9]
  KCHSC Obs (Observed percent weed control): 30%

## C#CC(C)(C)NC(=O)c1cc(Cl)cc(Cl)c1 [Propyzamide, 3,5-dichloro-N-(1,1-dimethyl-2-propyn-1-yl)benzamide]
[1]; [12]
  SINAR Obs (Observed percent weed control): 38%
[1]; Table 3, Spring application, propyzamide 900 g ai/ha
  SINAR Obs (Observed percent weed control): 10%
[1]; Table 4, Fall application, propyzamide 900 g ai/ha
  SINAR Obs (Observed percent weed control): 38%
[4]; [13]
  HORJU Obs (Observed percent weed control): 18%
[4]; [12]
  HORJU Obs (Observed percent weed control): 59%
[4]; [14]
  HORJU Obs (Observed percent weed control): 30%
[4]; [15]
  HORJU Obs (Observed percent weed control): 68%
[2]; [14]
  AVEFA Obs (Observed percent weed control): 30%
[2]; [16]
  AVEFA Obs (Observed percent weed control): 30%
[3]; [13]
  KCHSC Obs (Observed percent weed control): 0%
[3]; [12]
  KCHSC Obs (Observed percent weed control): 65%
[3]; [15]
  KCHSC Obs (Observed percent weed control): 0%
[3]; [16]
  KCHSC Obs (Observed percent weed control): 17%
[3]; Table 4, Fall application, propyzamide 450 g ai/ha
  KCHSC Obs (Observed percent weed control): 0%
